# Laboratory results from PMC2365028, “Transepithelial Transport and Metabolism of Boronated Dipeptides Across Caco-2 and HCT-8 Cell Monolayers” (Metal-Based Drugs, 1996).
# Several values for one entry are separate records, joined by “and”; a condition that tells them apart may be missing. Identical values can stand only once.
# Assays:
# [1] = test system: various murine and human tissue cultured cancer cells; conditions: cited from earlier work
# Caco-2 cell monolayers [2] = assay: Apical-to-basal transport and metabolism across Caco-2 cell monolayers (Transwell); conditions: for % Mass Balance / % Mass Transported / % Mass in Apical Side / Pseudo first-order rate constant k + SD / Apparent permeability coefficient Pe + SD / % Ester in the basal compartment / % FA (corresponding free acid) in the basal compartment: 4 h; for % Ester in the basal compartment / % FA (corresponding free acid) in the basal compartment: Table 9, side-by-side experiment; for recovery after quantitating the free acids at the conclusion of transport experiments: ester plus free acid
# Description: (§1) TRANSEPITHELIAL TRANSPORT AND METABOLISM OF BORONATED DIPEPTIDES ACROSS CACO-2 AND HCT-8 CELL MONOLAYERS Amy L. Elkins,John G. Eley,3, Merrill C. […] This study examined the effect of boronation on the transepithelial transport and metabolism of three glycine-phenylalanine dipeptides in Caco-2 and HCT-8 cell monolayers. […] Oral delivery of proteins and peptides as therapeutic agents is problematic due to their low bioavailability. This is mainly due to both their poor permeability across cellular barriers and to enzymatic degradation that occurs in the gut lumen, brush border, and enterocyte cytoplasm (2). […] Such as a substitution may also have the potential to alter the in vivo bioavailability of dipeptides. […] This study was undertaken to determine the effect of boronation on the transepithelial transport and metabolism of three glycine-phenylalanine dipeptides. […] Caco-2 cells are human colon adenocarcinoma cells first isolated from a primary colonic tumor (4). The cell line undergoes spontaneous enterortic differentiation in culture after reaching cotfflucnce, and morphologically resembles small intestinal epitheliun after three xveeks in culture (5). These morphological characteristics include the development of a brush border region expressing microvilli, occluding junctions, dome formations, and the formation of tight junctions leading to cell polarity. […] The cell line expresses a dipeptide carrier transport system in both the apical and basal membranes (9-10). […] HCT-8 cells are human adenocarcinoma cells from the ileocecal region; as such, these cells may give a truer reflection of gut absorption compared to Caco-2 cells which are derived from the colonic region. The cells produce a polarized differentiated monolayer consisting of enterocyte-like columnar cells that are interconnected by mature tightjunctions and desmosomes and exposed microvilla (11). The structural and functional integrity of the tight junctions of cells grown on polyester filter cups (Falcon, BD) and membrane filter inserts (Transwell(R), Costar) have been confirmed by transmission electron microscopy, transepithelial electrical resistance measurements, and transport of impermeant markers such as mannitol and polyethylene glycol (11, 12). […] Compound//was donated by Boron Biologicals, Inc., Raleigh, NC. Compound 111 was synthesized as follows: L-phenylalanine methyl ester hydrochloride (2.09 g, 9.7 mmol) and dimethylglycine (1 g, 9.7 retool) xvere suspended in 30 ml dry tetrahydrofuran with 10 mmol of triethylamine, dicyclohexyl-carbodiinfide and hydrox3'benzotriazole. The reaction was stirred at room temperature for 48 hours under nitrogen and the solvent was removed under reduced pressure. The product was purified on silica gel, two void volumes of hexane, two void volumes hexane/ethanol (8'1), and then hexane/ethanol (5:1). […] For the transport studies, cells were diluted with growth medium to give a total of […] cells/cm in 1.5 mls. The 1.5 ntis was placed in the apical compartment of a Transwcll(R) (Costar). The Transxvell(R) system is a 6-well plate with each well having an apical compartment capacity of 1.5 ntis, a basal compartment capacity of 2.5 ntis, and a 4.71 cm polycarbonate microporous (0.45 gin) membrane separating the two compartments. Cell monolayers in the Transwell(R) were allowed to grow for 21 days while the medium was replaced every 3 days. The cells were grown in Dulbecco's Modified Eagle Medium (D-MEM) containing L-glutamine and sodium pyruvate at 37C under 5% CO-. and saturated humidity. Additives to the medium included 10% heat- inactivated fetal bovine serum, 10 mM nonessential amino acids, 100 units of penicillin and 100 mg of streptomycin per ml of medium. 278 A.L. Elkins, J.G. Eley, M.C.
# Caco-2 cell monolayers [3] = assay: Basal-to-apical transport across Caco-2 cell monolayers; conditions: basal-to-apical
# Description: (§2) TRANSEPITHELIAL TRANSPORT AND METABOLISM OF BORONATED DIPEPTIDES ACROSS CACO-2 AND HCT-8 CELL MONOLAYERS Amy L. Elkins,John G. Eley,3, Merrill C. […] This study examined the effect of boronation on the transepithelial transport and metabolism of three glycine-phenylalanine dipeptides in Caco-2 and HCT-8 cell monolayers. […] Oral delivery of proteins and peptides as therapeutic agents is problematic due to their low bioavailability. This is mainly due to both their poor permeability across cellular barriers and to enzymatic degradation that occurs in the gut lumen, brush border, and enterocyte cytoplasm (2). […] Such as a substitution may also have the potential to alter the in vivo bioavailability of dipeptides. […] This study was undertaken to determine the effect of boronation on the transepithelial transport and metabolism of three glycine-phenylalanine dipeptides. […] Caco-2 cells are human colon adenocarcinoma cells first isolated from a primary colonic tumor (4). The cell line undergoes spontaneous enterortic differentiation in culture after reaching cotfflucnce, and morphologically resembles small intestinal epitheliun after three xveeks in culture (5). These morphological characteristics include the development of a brush border region expressing microvilli, occluding junctions, dome formations, and the formation of tight junctions leading to cell polarity. […]
# [4] = Stability in HBSS/HEPES buffer and apical/basal media without the Transwell system; format: physicochemical; conditions: HBSS/HEPES buffer pH 7.4, 37C, or apical and basal media
# [5] = 0.01N NaOH, 37C, 6 hours
# HCT-8 cell monolayers = assay: Apical-to-basal transport across HCT-8 cell monolayers (Transwell)
# Description: as §1, with “The cells were grown in Dulbecco's Modified Eagle Medium (D-MEM) containing L-glutamine and sodium pyruvate at 37C under 5% CO-. and saturated humidity. Additives to the medium included 10% heat- inactivated fetal bovine serum, 10 mM nonessential amino acids, 100 units of penicillin and 100 mg of streptomycin per ml of medium. 278 A.L. Elkins, J.G. Eley, M.C.” left out
# in vitro = conditions: human, Caco-2
# Description: as §2
# [6] = Table 1, 37C static, initial concentration 0.75 mM
# [7] = Table 1, 37C static, initial concentration 1.0 mM
# [8] = Table 1, 37C static, initial concentration 2.5 mM
# [9] = Table 1, 37C static, initial concentration 5.0 mM
# [10] = Table 1, 37C static, initial concentration 7.5 mM
# [11] = Table 2, 37C static, initial concentration 1.0 mM
# [12] = Table 2, 37C static, initial concentration 5.0 mM (fourth row)
# [13] = Table 2, 37C static, initial concentration 7.5 mM
# [14] = Table 10, 37C static, 4 h, initial concentration 0.75 mM
compound,measurement,setting,value
"COC(=O)[C@H](Cc1ccccc1)NC(=O)[BH2-][N+](C)(C)C [Compound I, N-[(trimethylamine-boryl)-carbonyl]-L-phenylalanine methyl ester]",cytotoxicity,[1],potent
same,% Mass Balance,Caco-2 cell monolayers [2]; [6],63.8%
same,% Mass Transported,Caco-2 cell monolayers [2]; [6],62.2%
same,% Mass in Apical Side,Caco-2 cell monolayers [2]; [6],1.6%
same,% Mass Balance,Caco-2 cell monolayers [2]; [7],67.8%
same,% Mass Transported,Caco-2 cell monolayers [2]; [7],60.0%
same,% Mass in Apical Side,Caco-2 cell monolayers [2]; [7],7.8%
same,% Mass Balance,Caco-2 cell monolayers [2]; [8],73.0%
same,% Mass Transported,Caco-2 cell monolayers [2]; [8],64.0%
same,% Mass in Apical Side,Caco-2 cell monolayers [2]; [8],9.0%
same,% Mass Balance,Caco-2 cell monolayers [2]; [9],71.0%
same,% Mass Transported,Caco-2 cell monolayers [2]; [9],62.7%
same,% Mass in Apical Side,Caco-2 cell monolayers [2]; [9],8.3%
same,% Mass Balance,Caco-2 cell monolayers [2]; [10],74.6%
same,% Mass Transported,Caco-2 cell monolayers [2]; [10],66.7%
same,Mass Transported (collected in the basal medium after 4 hours),Caco-2 cell monolayers [2]; [7],0.90
same,Mass Transported (collected in the basal medium after 4 hours),Caco-2 cell monolayers [2]; [8],2.4
same,Mass Transported (collected in the basal medium after 4 hours),Caco-2 cell monolayers [2]; [9],4.7
same,Mass Transported (collected in the basal medium after 4 hours),Caco-2 cell monolayers [2]; [10],7.5
same,Pseudo first-order rate constant k + SD,"Caco-2 cell monolayers [2]; Table 2, 37C static, initial concentration 0.75 mM",1.76 + 0.06 x 104/sec
same,Apparent permeability coefficient Pe + SD,Caco-2 cell monolayers [2]; [11],35.1 ×10⁻⁶ cm/s
same,Pseudo first-order rate constant k + SD,Caco-2 cell monolayers [2]; [11],1.70 + 0.08 x 104/sec
same,Apparent permeability coefficient Pe + SD,"Caco-2 cell monolayers [2]; Table 2, 37C static, initial concentration 2.5 mM",37.5 ×10⁻⁶ cm/s
same,Apparent permeability coefficient Pe + SD,Caco-2 cell monolayers [2]; [12],32 ×10⁻⁶ cm/s
same,Pseudo first-order rate constant k + SD,Caco-2 cell monolayers [2]; [12],1.35 + 0.17 x 104/sec
same,Apparent permeability coefficient Pe + SD,Caco-2 cell monolayers [2]; [13],37.5 ×10⁻⁶ cm/s
same,Pseudo first-order rate constant k + SD,Caco-2 cell monolayers [2]; [13],1.56 + 0.11 x 104/sec
same,% Mass Balance,"Caco-2 cell monolayers [2]; Table 3, 2.5 mM, 4C Rocking",89.3%
same,% Mass Transported,"Caco-2 cell monolayers [2]; Table 3, 2.5 mM, 4C Rocking",48.6%
same,% Mass in Apical Side,"Caco-2 cell monolayers [2]; Table 3, 2.5 mM, 4C Rocking",40.7%
same,% Mass in Apical Side,"Caco-2 cell monolayers [2]; Table 3, 2.5 mM, 37C Rocking",2%
same,% Mass Balance,"Caco-2 cell monolayers [2]; Table 3, 2.5 mM, 37C Static",73.1%
same,% Mass Transported,"Caco-2 cell monolayers [2]; Table 3, 2.5 mM, 37C Static",56.9%
same,Mass Transported (collected in the basal medium after 4 hours),"Caco-2 cell monolayers [2]; Table 3, initial concentration 2.5 mM, 4C Rocking",1.8
same,Mass Transported (collected in the basal medium after 4 hours),"Caco-2 cell monolayers [2]; Table 3, initial concentration 2.5 mM, 37C Rocking",3.0
same,Mass Transported (collected in the basal medium after 4 hours),"Caco-2 cell monolayers [2]; Table 3, initial concentration 2.5 mM, 37C Static",2.1
same,Pseudo first-order rate constant k + SD,"Caco-2 cell monolayers [2]; Table 4, 2.5 mM, 37C Rocking",3.54 + 0.06 x 104/sec
same,Pseudo first-order rate constant k + SD,"Caco-2 cell monolayers [2]; Table 4, 2.5 mM, 37C Static",1.03 + 0.06 x 104/sec
same,% Ester in the basal compartment,Caco-2 cell monolayers [2]; 4C Rocking,74.0%
same,% FA (corresponding free acid) in the basal compartment,Caco-2 cell monolayers [2]; 4C Rocking,none
same,% Ester in the basal compartment,Caco-2 cell monolayers [2]; 4C Static,61.8%
same,% FA (corresponding free acid) in the basal compartment,Caco-2 cell monolayers [2]; 4C Static,none
same,% Ester in the basal compartment,Caco-2 cell monolayers [2]; 37C Static,44.4% and 44%
same,% FA (corresponding free acid) in the basal compartment,Caco-2 cell monolayers [2]; 37C Static,44.4% and 44%
same,mode of transport across the monolayer,Caco-2 cell monolayers [2]; apical-to-basal,passive diffusion
same,compound recovered after transport through Caco-2 cell monolayers,"Caco-2 cell monolayers [2]; apical-to-basal, 4 hours",Approximately 70%
same,recovery after quantitating the free acids at the conclusion of transport experiments,Caco-2 cell monolayers [2],100%
same,ester remaining in the apical compartment,"Caco-2 cell monolayers [2]; side-by-side experiment, 37C static, 4 hours",none
same,recovery in basal-to-apical transport experiments,Caco-2 cell monolayers [3],100%
same,% of the original ester at 25 hours,[4],96%
same,ester degradation to the free acid,[5],all ofthe ester was degraded
same,unaccounted for as the ester or the respective free acid,HCT-8 cell monolayers; HCT-8 cell monolayers,~45%
same,% Mass Balance,HCT-8 cell monolayers; [14],88.2%
same,% Mass Transported,HCT-8 cell monolayers; [14],77.3%
same,% Mass in Apical Side,HCT-8 cell monolayers; [14],10.9%
same,Mass Transported (collected in the basal medium after 4 hours),"HCT-8 cell monolayers; Table 10, 37C static, initial concentration 0.75 mM",0.87
"COC(=O)[C@H](Cc1ccccc1)NC(=O)[BH2-][NH+](C)C [Compound II, N-[(dimethylamine-boryl)-carbonyl]-L-phenylalanine methyl ester]",% Mass Balance,"Caco-2 cell monolayers [2]; Table 5, 4C Rocking",81.8%
same,% Mass Transported,"Caco-2 cell monolayers [2]; Table 5, 4C Rocking",37.3%
same,% Mass in Apical Side,"Caco-2 cell monolayers [2]; Table 5, 4C Rocking",44.5%
same,% Mass Balance,"Caco-2 cell monolayers [2]; Table 5, 4C Static",79.9%
same,% Mass Transported,"Caco-2 cell monolayers [2]; Table 5, 4C Static",39.3%
same,% Mass in Apical Side,"Caco-2 cell monolayers [2]; Table 5, 4C Static",40.6%
same,% Mass Balance,"Caco-2 cell monolayers [2]; Table 5, 37C Static",57.7%
same,% Mass Transported,"Caco-2 cell monolayers [2]; Table 5, 37C Static",52.7%
same,% Mass in Apical Side,"Caco-2 cell monolayers [2]; Table 5, 37C Static",5.0%
same,Mass Transported (collected in the basal medium after 4 hours),"Caco-2 cell monolayers [2]; Table 5, initial concentration figure not printed (mM), 4C Rocking",0.56
same,Mass Transported (collected in the basal medium after 4 hours),"Caco-2 cell monolayers [2]; Table 5, initial concentration figure not printed (mM), 4C Static",0.59
same,Mass Transported (collected in the basal medium after 4 hours),"Caco-2 cell monolayers [2]; Table 5, initial concentration figure not printed (mM), 37C Static",0.79
same,Apparent permeability coefficient Pe + SD,"Caco-2 cell monolayers [2]; Table 6, 37C Rocking",48 ×10⁻⁶ cm/s
same,Pseudo first-order rate constant k + SD,"Caco-2 cell monolayers [2]; Table 6, 37C Rocking",2.8 + 0.22 x 104/sec
same,% Ester in the basal compartment,Caco-2 cell monolayers [2]; 4C Rocking,55.5%
same,% FA (corresponding free acid) in the basal compartment,Caco-2 cell monolayers [2]; 4C Rocking,inhibited
same,% Ester in the basal compartment,Caco-2 cell monolayers [2]; 4C Static,59.4%
same,% FA (corresponding free acid) in the basal compartment,Caco-2 cell monolayers [2]; 4C Static,inhibited
same,% Ester in the basal compartment,Caco-2 cell monolayers [2]; 37C Static,48.6% and 49%
same,% FA (corresponding free acid) in the basal compartment,Caco-2 cell monolayers [2]; 37C Static,51.5% and 52%
same,mode of transport across the monolayer,Caco-2 cell monolayers [2]; apical-to-basal,passive diffusion
same,compound recovered after transport through Caco-2 cell monolayers,"Caco-2 cell monolayers [2]; apical-to-basal, 4 hours",58%
same,recovery after quantitating the free acids at the conclusion of transport experiments,Caco-2 cell monolayers [2],100%
same,% of the original ester at 25 hours,[4],90%
"CCCOC(=O)c1ccc(O)cc1 [Propyl paraben, reference compound]",mode of transport across the monolayer,Caco-2 cell monolayers [2]; Caco-2,passive diffusion
same,compound recovered after transport through Caco-2 cell monolayers,"Caco-2 cell monolayers [2]; human, Caco-2, 4 h",100%
same,recovery,in vitro,100%
